Three compounds from US20240245736A1, “COMPOSITIONS AND METHODS FOR REDUCING BLOOD ALCOHOL CONTENT” (LIFE WELL LIVED, LLC, priority 2012, published 2024) can be followed below.

This assay can be described thus: BAC scores by breathalyzer and observed behavior in subjects who had voluntarily consumed alcohol, compared with projected BAC. The assay is classed as in vivo, human. Also on record: actual BAC score / actual BAC: unit not given here. The following applies: for signs of intoxication: twenty minutes after administration; for effect on the subject's BAC score, summary of the experiments: actual vs projected BAC over the course of the experiment; for change in BAC twenty minutes after administration: summary over subjects. The text has this: The following experiments involved subjects who voluntarily consumed alcoholic beverages. The subjects chose the type and amount of alcohol that was consumed, as well as the rate at which the alcohol was consumed. At the point when the subjects started to feel effects of their alcohol consumption and chose to stop consuming alcohol, the subjects voluntarily consumed a composition that contained a source of NAD+, Lactobacillus, Bifidobacterium, or a combination of two or more of those ingredients. Projected BAC scores were calculated approximately every twenty minutes using an online BAC calculator provided by the Wisconsin Department of Transportation, which provides a projected BAC based on factors such as the subject's weight, sex, alcohol consumed, rate of alcohol consumed, and food consumed. BAC scores were also quantitatively measured approximately every twenty minutes using a breathalyzer. The projected BAC score served as a negative control because it estimates the change in BAC that is expected to occur over time after a subject stops consuming alcohol. Changes in each subject's behavior were also observed over the course of the experiment.
The ingredients that were administered to the subjects are commercially available and sold for human consumption. In the following experiments, NAD+ was provided by administering 5 mL of Liquid CoQ10, which is made by NOW Foods and contains 5 mg NAD+ in the 5 mL dose. To administer Lactobacillus, the subjects were given two Culturelle® Health & Wellness capsules, each of which contains Lactobacillus GG (10 billion cells). To administer Bifidobacterium, subjects were given two capsules of Align® Bifantis® Bifidobacterium infantis 35624, which contain 1 billion cfu per capsule. To administer Lactobacillus and Bifidobacterium, subjects were given 1-2 capsules of Dr. Mercola's® Complete Probiotics capsules, each of which contains 35 billion cells including the following species: Lactobacillus acidophilus DDS-1, Lactobacillus casei, Lactobacillus plantarum, Lactobacillus salivarius, Lactobacillus rhamnosus, Lactobacillus brevis, Bifidobacterium lactis, Bifidobacterium longum, Bifidobacterium bifidum, and Streptococcus thermophilus. Subjects were also given 5 mg of zinc, which was provided in liquid form.

For the compound `NC(=O)c1ccc[n+]([C@@H]2O[C@H](COP(=O)([O-])OP(=O)(O)OC[C@H]3O[C@@H](n4cnc5c(N)ncnc54)[C@H](O)[C@@H]3O)[C@@H](O)[C@H]2O)c1` [NAD+, nicotinamide adenine dinucleotide, reference compound], the “effect on the subject's BAC score, summary of the experiments” value (from here on “effect … of the experiments”) was “no effect or only a minimal effect” and the “change in BAC twenty minutes after administration” value (“change in BAC twenty minutes” below) is “increase in BAC”. Further, for the setting “FIG. 1, person, 198 pounds, beer and wine, 11:12, twenty minutes after administration, BAC at administration 0.089, projected 0.084”, the “actual BAC score” value is reported as 0.082. In addition, for the setting “FIG. 1 subject”, the “effect on the subject's BAC score, actual vs projected” value (“effect … vs projected” for short) is “no effect” and the signs of intoxication entry was “continued to exhibit signs of intoxication”. In addition, the “actual BAC score” value (FIG. 2, person, 188 pounds, beer, 11:12, twenty minutes after administration, BAC at administration 0.085, projected 0.085) is 0.086. In addition, for the setting “FIG. 2 subject”, the “effect … vs projected” value is “minimal or no effect” and the signs of intoxication entry is given as “continued to exhibit signs of intoxication”. For the same compound, the “actual BAC score” value (FIG. 3, person, 169 pounds, beer and vodka, 11:12, twenty minutes after administration, BAC at administration 0.086, projected 0.087) stood at 0.086. Also, under “FIG. 3 subject”, the “effect … vs projected” value is “little effect” and the signs of intoxication entry is given as “continued to exhibit signs of intoxication”. In addition, the “actual BAC” value (FIG. 9, person, 182 pounds, beer and vodka, 11:32, 40 minutes after NAD+ at 10:52 (BAC 0.088), before Lactobacillus and Bifidobacterium) is on record as 0.056.

In the case of Lactobacillus, the “effect … of the experiments” value is recorded as “no effect or only a minimal effect” and the “change in BAC twenty minutes” value was “increase in BAC”. Besides, under “FIG. 4, person, 122 pounds, wine and vodka, 7:25, twenty minutes after administration, BAC at administration 0.086, projected 0.084”, the “actual BAC score” value is 0.082. Besides, for the setting “FIG. 4 subject”, the “effect … vs projected” value is reported as “no effect” and the signs of intoxication result is on record as “continued to exhibit signs of intoxication”. The “actual BAC score” value (FIG. 5, person, 155 pounds, beer and wine, 7:25, twenty minutes after administration, BAC at administration 0.13, projected 0.129) stood at 0.12. For the setting “FIG. 5 subject”, the “effect … vs projected” value was “little effect”. For the same compound, under “FIG. 6, person, 169 pounds, beer and vodka, 7:25, twenty minutes after administration, BAC at administration 0.086, projected 0.074”, the “actual BAC score” value came to 0.067. Under “FIG. 6 subject”, the “effect … vs projected” value is given as “little effect”.

Consider Bifidobacterium, for which the “effect … of the experiments” value was “no effect or only a minimal effect” and the “change in BAC twenty minutes” value is “increase in BAC”. Besides, the “actual BAC” value (FIG. 7, person, 146 pounds, wine, 1:20, twenty minutes after administration, BAC at administration 0.159, projected 0.157) was found to be 0.151. The “effect … vs projected” value (FIG. 7 subject) is “little effect”. In addition, the “actual BAC” value (FIG. 8, person, 171 pounds, 12:40, twenty minutes after administration, BAC at administration 0.13, projected 0.132) stood at 0.125. The “effect … vs projected” value (FIG. 8 subject) is recorded as “little effect”.
